These results are taken from paper PMC9607599, “Dual Targeting Ligands—Histamine H3 Receptor Ligands with Monoamine Oxidase B Inhibitory Activity—In Vitro and In Vivo Evaluation” (Pharmaceutics, 2022).

“And” between values parts separate entries of the source, which are not always exact repeats. Identical values can stand only once.

Test [1] addresses T1, HNMT in rat cerebral cortex (Rattus norvegicus, UniProt Q01984).
T1 construct: from tissue; host or cells: cerebral cortex of male Wistar rats
Kind of test: histamine N-methyltransferase activity after sub-chronic administration (radioenzymatic). It counts as in vivo. The following applies: 3 mg/kg/day s.c. for 6 days. The method, then:
(§1) The compound 13 was given to intact Wistar rats to verify its impact on the metabolism of biogenic amines in the brain (cerebral amines and their metabolites concentrations as well as activities of metabolizing enzymes). […] Both drugs (3 mg/kg body mass, dissolved in 0.9% NaCl) were given subcutaneously for 6 consecutive days. Control rats were injected with 200 μL of 0.9% NaCl.
(§2) Tissues were collected and properly prepared for subsequent biochemical analyzes. The brain was quickly removed from the skull and the selected structures (hypothalamus, striatum, cerebral cortex) were dissected according to the method by Glowinsky and Iversen, immediately frozen in liquid nitrogen and kept at −80 °C until assayed.
Histamine N-methyltransferase activity was determined radioenzymatically according to Taylor and Snyder by measurements of radioactive N-tele-methylhistamine formed in a transmethylation reaction catalyzed by the enzyme, as previously described. S-adenosyl-L-(methyl-^14C)-methionine was used as a donor of methyl group.
(§3) The enzyme activities are expressed as pmol/min/mg protein. Protein concentration was analyzed by Lowry’s method.

The test system of test [2] is rat brain (cerebral cortex, hypothalamus, striatum) monoamines. Put plainly: HPLC-ED detection of monoamines and metabolites in rat brain tissue after sub-chronic administration. Type of test: in vivo. The following applies: for 5-HIAA/5-HT ratio / DOPAC/DA ratio / HVA/DA ratio / MHPG/NA ratio: mean ± SEM. The method, then: as §1, §2
The concentration of dopamine (DA), serotonin (5-HT) and noradrenaline (NA) as well as their metabolites, i.e., 3,4-dihydroxyphenylacetic acid (DOPAC), homovanillic acid (HVA), 3-methoxy-4-hydroxyphenylglycol (MHPG) and 5-hydroxyindoleacetic acid (5-HIAA) was determined in striatum (STR), hypothalamus (HPT) and cerebral cortex (CTX) with the RP-HPLC-ED method.
Cerebral samples for HPLC analysis were homogenized using an ultrasonic homogenizer (Fisher BioBlock Scientific, France) for 15 s in 150 μL homogenization solution (0.1 M HClO4 containing 0.4 mM Na2S2O5), and centrifuged at 12,000 rpm for 15 min at 4 °C. At least 100 μL of the supernatant was transferred to chromatographic tubes and kept at –80 °C until analysis. Next, 20 μL of the filtrates was injected into the HPLC system.
The Agilent 1100 chromatographic system with Waters Spherisorb ODS-1 RP C-18 chromatographic column (4.6 × 250 mm) preceded by a Zorbax SB-C18 pre-column (4.6 × 12.5 mm) was used. Column temperature was set at 35 °C and mobile phase flow at 1 mL/min. The glassy carbon working electrode was set at +0.65 V, relative to the Ag/AgCl reference electrode. The mobile phase consisted of a phosphate buffer (3.4 pH) containing: 0.15 M NaH2PO4 x H2O, […] Na2EDTA, 0.5 mM Na2OSA, 0.5 mM LiCl and addition of methanol (10%). The chromatographic data were analyzed using ChemStation, Revision-B.03.02, Agilent software.
The concentrations of monoamines and their metabolites in each sample were calculated from the integrated chromatographic peak area and presented in nmol/gram of wet tissue. Additionally, the ratio of metabolites to their parent amines was calculated.

In test [3] the target is T2, MAO B in rat cerebral cortex (Rattus norvegicus, UniProt P19643).
T2 construct: from tissue; host or cells: cerebral cortex homogenate of male Wistar rats
T2 sequence (P19643 1-520): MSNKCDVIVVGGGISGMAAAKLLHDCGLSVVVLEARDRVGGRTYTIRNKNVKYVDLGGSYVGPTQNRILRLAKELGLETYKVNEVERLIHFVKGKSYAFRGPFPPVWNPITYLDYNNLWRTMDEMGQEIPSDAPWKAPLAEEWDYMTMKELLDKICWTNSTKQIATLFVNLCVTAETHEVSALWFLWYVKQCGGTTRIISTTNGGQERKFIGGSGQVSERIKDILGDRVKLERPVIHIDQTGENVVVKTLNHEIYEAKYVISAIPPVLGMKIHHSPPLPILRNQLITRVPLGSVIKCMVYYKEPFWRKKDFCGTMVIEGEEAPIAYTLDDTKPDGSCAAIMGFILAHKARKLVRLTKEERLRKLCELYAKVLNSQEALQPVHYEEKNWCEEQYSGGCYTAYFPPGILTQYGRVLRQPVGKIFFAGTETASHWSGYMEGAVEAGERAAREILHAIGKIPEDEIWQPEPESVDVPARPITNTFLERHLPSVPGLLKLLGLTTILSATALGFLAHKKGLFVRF
Kind of test: MAO B activity in cerebral cortex homogenates after sub-chronic administration (radioassay). Type of test: in vivo. Conditions: 3 mg/kg/day s.c. for 6 days. The method, then: as §1, §2
MAO A and MAO B activities were estimated in cerebral homogenates with radioassays using 5-[2-^14C]-hydroxytryptamine binoxalate (final conc. 200 µM) and β-[ethyl-1-^14C]-phenylethylamine hydrochloride (final conc. 20 µM), as well as specific inhibitors—clorgyline and deprenyl (final conc. 10^−9 M), respectively.
as §3

Test [4] relates to Wistar rats. Put plainly: feeding behavior (food, water, urine) after sub-chronic administration in metabolic cages. It counts as in vivo, rat. Conditions: 3 mg/kg s.c. for 6 days, treatment period value (vs pre-treatment). The method, then:
The compound 13 has been examined for its in vivo activity in rats. Male Wistar rats weighing 180–240 g at the beginning of the experiments were used for the study. Animals were individually housed in standard cages with liquid and food available ad libitum, under an artificial reversed 12-h light–dark cycle with light off at 7 a.m., temperature 21–22 °C and 60–65% humidity.
Before the start of the experiments, the animals were habituated for 7 days to the conditions in the animal facility. Pharmacological treatments were carried out in the dark phase of the cycle. During the drug administration, the rats were kept in metabolic cages (Tecniplast, Italy). After an additional one day adaptation, there was a 3-day pre-treatment phase.
as §1
The volumes of consumed food and water, as well as urine excretion, were recorded daily and expressed in g or mL per 100 g of body mass or mL per 24 h, respectively.
The final results are given as means with SEM calculated for each 24-h period, computed from 3-day (pre-treatment phase) or 6-day (pharmacological treatment) monitoring. All experimental procedures were undertaken according to EU directives and local ethical regulations.

[5] abbreviates: cerebral cortex, 3 mg/kg s.c. for 6 days.
[6] abbreviates: not statistically significant, vs control.
The mark [7] stands for this setting: striatum, 3 mg/kg s.c. for 6 days.

T1 sequence (Q01984 whole entry): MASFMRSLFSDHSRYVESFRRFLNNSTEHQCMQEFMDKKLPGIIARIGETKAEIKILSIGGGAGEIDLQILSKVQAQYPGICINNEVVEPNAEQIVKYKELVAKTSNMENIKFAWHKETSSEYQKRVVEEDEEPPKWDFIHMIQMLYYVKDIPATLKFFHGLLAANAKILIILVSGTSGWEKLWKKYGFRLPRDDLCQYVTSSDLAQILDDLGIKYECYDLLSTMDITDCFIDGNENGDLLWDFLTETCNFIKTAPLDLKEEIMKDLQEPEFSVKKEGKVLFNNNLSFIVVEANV

As to `CC1CCCN1CCCOc1ccc(C(C)(C)C)cc1.O=C(O)C(=O)O` (stereo not shown) [Compound 13, 1-(3-(4-(tert-Butyl)phenoxy)propyl)-2-methylpyrrolidine hydrogen oxalate], the HNMT activity in test [1] is reported as 40.09 ± 1.77 pmol/min/mg of protein. For the same compound, in test [2] (CTX, 3 mg/kg s.c. for 6 days), the 5-HIAA/5-HT ratio is given as 1.211 ± 0.202, the DOPAC/DA ratio was 0.364 ±0.080 **^,## and the HVA/DA ratio is 0.254 ± 0.015 *^,##. Besides, in test [2] (HPT, 3 mg/kg s.c. for 6 days), the 5-HIAA/5-HT ratio was determined as 0.810 ±0.061, the DOPAC/DA ratio turned out to be 0.359 ±0.117, the HVA/DA ratio stood at 0.329 ± 0.091 and the MHPG/NA ratio is listed as 0.205 ±0.030. Moreover, in test [2] (STR, 3 mg/kg s.c. for 6 days), the 5-HIAA/5-HT ratio worked out at 2.456 ± 0.908, the DOPAC/DA ratio is 0.207 ± 0.067, the HVA/DA ratio was 0.486 ± 0.388 and the MHPG/NA ratio was 0.329 ± 0.057. In test [2] (setting [5]), the “5-HIAA level in CTX” value was determined as 1.320 ± 0.153 nmol/g wet tissue, the “5-HT level in CTX” value was 1.194 ± 0.139 nmol/g wet tissue, the “DA content in CTX” value came to 1.777 ± 0.128 nmol/g wet tissue and the “DOPAC level in CTX” value was 0.562 ± 0.093 nmol/g wet tissue. In addition, in test [2] (setting [5]), the “MHPG concentration in CTX” value is on record as 0.897 ± 0.280 nmol/g wet tissue and the “NA concentration in CTX” value is reported as 1.255 ± 0.152 nmol/g wet tissue. For the same compound, in test [2] (setting [6]), the “DA concentration in hypothalamus, in words” value was “slight increase” and the “DOPAC concentration in hypothalamus, in words” value was “decrease”. In addition, in test [2] (setting [7]), the “DA content in STR” value is on record as 9.914 ± 1.718 nmol/g wet tissue and the “DOPAC level in STR” value is on record as 1.704 ± 0.187 nmol/g wet tissue. Further, in test [2] (vs control), the “5-HIAA level in hypothalamus, in words” value is reported as “statistically significant decrease”; the “5-HT and 5-HIAA concentrations in the striatum, in words” value is on record as “did not affect”; the “5-HT content in hypothalamus, in words” value was “no changes”; the “NA and MHPG concentration in the other examined brain structures (HPT, STR), in words” value is recorded as “no differences were found”. In addition, in test [3], the “MAO B activity in cerebral cortex” value is 48.38 ± 12.02 pmol/min/mg protein. Besides, the “decline in MAO B activity in rat cerebral cortex” value in test [3] (vs control) is 91.7% and > 90%. For the same compound, in test [4], the food consumption amounted to 8.61 ± 0.11 g/100 g bw, the urine output is 8.90 ± 0.045 mL/24 h and the water consumption is given as 13.37 ± 0.31 mL/100 g bw/24 h.

For the compound `Clc1ccc(CCCOCCCN2CCCCC2)cc1` [Pitolisant, 3-(4-chlorophenyl)propyl 3-piperidinopropyl ether, reference compound], in test [1], the HNMT activity is 42.51 ± 1.40 pmol/min/mg of protein. Moreover, the “content in brain tissue of the examined biogenic amines and their metabolites compared to control, in words” value in test [2] (3 mg/kg s.c. for 6 days) was “did not show any differences”. For the same compound, in test [3], the “MAO B activity vs control, in words” value is recorded as “close to that recorded in control animals”. Besides, in test [4], the food consumption worked out at 8.95 ± 0.14 g/100 g bw, the urine output is given as 9.08 ± 0.49 mL/24 h and the water consumption stood at 14.16 ± 0.43 mL/100 g bw/24 h.
